Data on one compound can be found in publication PMC12495443, “Developing inhibitors of the guanosine triphosphate hydrolysis accelerating activity of Regulator of G protein Signaling-14 [drawing 1]” (The Journal of Biological Chemistry, 2025).

Common to all, as to assay type: biochemical
For experiment [1], the target named is T1, human RGS14 RGS-box (wild-type) (Homo sapiens, UniProt O43566).
T1 construct: human RGS14 RGS-box (aa 46–195 of UniProt O43566); host or cells: E. coli
T1 sequence (O43566 46-195): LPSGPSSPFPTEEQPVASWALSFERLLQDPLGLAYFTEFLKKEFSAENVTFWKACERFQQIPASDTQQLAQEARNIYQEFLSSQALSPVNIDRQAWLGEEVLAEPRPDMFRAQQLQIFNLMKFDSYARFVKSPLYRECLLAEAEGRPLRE
Kind of experiment: Transcreener GDP RGScreen fluorescence polarization assay of RGS14 RGS-box GAP activity on Gαi1(DM). The method, boiled down:
(§1)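 Steady-state GTP hydrolysis by rate-altered double point-mutant Gαi1 was read by Transcreener GDP fluorescence polarization, with GTP conversion kept below 10% of maximum input. The E. coli-expressed, N-terminal His6-tagged wild-type RGS-boxes were RGS12 aa 695–843 and RGS14 aa 46–195.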

For experiment [2], the target named is T2, cysteine-less RGS12 RGS-box protein (Homo sapiens, UniProt O14924, C701S/C748S/C775S/C831S).
T2 construct: human RGS12 RGS-box (aa 695–843 of UniProt O14924); host or cells: E. coli
T2 sequence (O14924 695-843 C701S/C748S/C775S/C831S): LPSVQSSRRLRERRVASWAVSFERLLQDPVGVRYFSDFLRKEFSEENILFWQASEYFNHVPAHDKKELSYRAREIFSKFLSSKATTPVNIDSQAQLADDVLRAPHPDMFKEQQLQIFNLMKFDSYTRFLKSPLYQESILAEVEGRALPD
Kind of experiment: Transcreener GDP RGScreen assay with cysteine-less RGS12 RGS-box. The following applies: range given jointly for cysteine-less RGS14 and RGS12 proteins; read-out: estimated IC50, cysteine-less RGS12 RGS-box. From the text: Given the earlier experience with screening hit CCG-4986 being a covalent modifier of RGS4 cysteine residues ([35]), we sought to exclude protein-thiol reactivity as a potential mechanism of action of the active compounds derived from the AtomNet virtual screening effort ([55]) and SAR campaign follow-ups. To address this possibility and screen out thiol-reactive hits, cysteine-lacking versions of recombinant proteins spanning the RGS-boxes of RGS14 and RGS12 were purified from E. coli cultures.
Reagents and protocols for the fluorescence anisotropy-based Transcreener GDP RGScreen assay using a rate-altered, double point-mutant, recombinant Gαi1 protein have been extensively described previously ([43], [44]); reactions were always performed so that total GTP converted over the time course was consistently less than 10% of reaction maximum input. […] Open-reading frames (ORFs) encoding wild-type versions of the human RGS14 RGS-box (aa 46–195 of UniProt O43566) and human RGS12 RGS-box (aa 695–843 of UniProt O14924) were each sub-cloned in-frame with an N-terminal hexahistidine (His6) expression tag in the plasmid pET30a, expressed in E. coli cultures, and then purified by nickel-nitriloacetate (Ni-NTA) and size-exclusion (Superdex 200) column chromatographies by GenScript using previously described methods ([35]). […]

For experiment [3], the target named is T3, human RGS12 RGS-box (wild-type) (Homo sapiens, UniProt O14924).
T3 construct: human RGS12 RGS-box (aa 695–843 of UniProt O14924); host or cells: E. coli
T3 sequence (O14924 695-843): T2 sequence (O14924 695-843 C701S/C748S/C775S/C831S) with S7C, S54C, S81C, S137C
Kind of experiment: Transcreener GDP RGScreen fluorescence polarization assay of RGS12 RGS-box GAP activity on Gαi1(DM). The following applies: wild-type RGS12 RGS-box GAP activity, Gαi1(DM), read-out: RGS12 pIC50 (converted). The method, boiled down: as §1

Where a chain is given by its changes, count along the chain named.

Turning to `COc1ccc(OCc2nnc3n2N=C(c2ccc(OC)c(OC)c2)CS3)cc1` [Z55660043, 6-(3,4-dimethoxyphenyl)-3-[(4-methoxy-phenoxy)methyl]-5H-[1,2,4]triazolo[3,4-b][1,3,4]thiadiazine], the “Ratio (RGS14 pIC50 / RGS12 pIC50)” value in experiment [1] (values > 1.0 reflect RGS14 selectivity) is given as 0.95. The IC50 is 2290 nM in experiment [1] (wild-type RGS14 RGS-box GAP activity, Gαi1(DM), Transcreener GDP RGScreen, read-out: RGS14 pIC50 (converted)); 10000 to 19000 nM in experiment [2]; 1200 nM in experiment [3].
